The source of these data is US9416126B2, “Compounds inhibiting leucine-rich repeat kinase enzyme activity” (Merck Sharp & Dohme Corp., priority 2013, dated 2016).

Common to all, as to assay type: biochemical
Test [1] has as its target T1, LRRK2(G2019S mutation, GST-LRRK2(amino acids 970-2527)) (Homo sapiens (Human), UniProt Q5S007, G2019S). Nature of the test: LRRK2 5 mM ATP LanthaScreen Assay. The method, then:
The data presented for the 5 mM and Km ATP LanthaScreen™ Assay represents mean IC50 values based on several test results and may have reasonable. deviations depending on the specific conditions and reagents used. Reagents for the LRRK2 5 mM and Km ATP LanthaScreen™ Assay were purchased from Life Technologies Corporation.
LRRK2 5 mM ATP LanthaScreen™ Assay
a) 400 nl of a 1:2.15 serial dilution of test compound(98 μM top assay concentration) is spotted via Labcyte Echo to certain wells in a 384 well black, untreated plate. Control wells contain 400 nl of either DMSO or 400 nl of a known inhibitor in DMSO.
b) 10 μl of a 2.5 nM LRRK2(G2019S mutation, GST-LRRK2(amino acids 970-2527)) enzyme solution in 1× assay buffer(50 mM Tris pH 8.5, 10 mM MgCl2, 0.01% Brij-35, 1.0 mM EGTA, 2 mM DTT, 0.05 mM NaVO4) is added to all wells.
c) A 30 minute room temperature incubation is followed by addition of 10 μl of 800 nM fluorescein labeled LRRKtide peptide substrate and 10 mM ATP solution in 1× assay buffer to all wells.
d) After a 35 minute room temperature incubation, 20 μl of TR-FRET Dilution Buffer(Invitrogen PV3756B) containing 4 nM Tb-labeled anti-phospho LRRKtide antibody and 20 mM EDTA is added to all wells.
e) Plates are incubated at room temperature for 1 hour and read on an Envision™ multi-mode plate reader with LanthaScreen™ settings. Results are analysed using Assay Data Analyzer.

The target of test [2] is T1, LRRK2(G2019S mutation, GST-LRRK2(amino acids 970-2527)). Nature of the test: LRRK2 Km ATP LanthaScreen Assay. A digest of the protocol: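 TR-FRET: GST-LRRK2 970-2527 G2019S (2.5 nM solution) preincubated 30 min with compound (98 μM top, 1:2.15 dilutions), then 800 nM fluorescein-LRRKtide and 184 μM ATP solution added for 60 min at room temperature in Tris pH 8.5 buffer. Stopped with EDTA and Tb anti-phospho-LRRKtide antibody; IC50 is a mean of several tests.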
In general terms: In TR-FRET formats the signal depends on donor and acceptor labels being close together.

The subject of test [3] is kinases. The test is described as follows: Kinase selectivity using Z'-LYTE or Adapta. The conditions noted are these: 1 μM of Example; for percent inhibition IRAK1: Adapta platform; for percent inhibition AURKB (Aurora B) / percent inhibition CDK1/cyclin B / percent inhibition CHEK2 (CHK2) / percent inhibition CLK2 / percent inhibition DYRK1A / percent inhibition JAK3 / percent inhibition MAPK1 (ERK2) / percent inhibition MAPK8 (JNK1): Z-LYTE platform.

The target of test [4] is kinases (Homo sapiens, UniProt P15056, V600E). The test is described as follows: Kinase selectivity using Z'-LYTE or Adapta. To be noted: 1 μM of Example; Z-LYTE platform.
The mark [5] stands for this setting: Km ATP (184 μM ATP solution), G2019S LRRK2, mean IC50.

T1 sequence (Q5S007 970-2527 G2019S): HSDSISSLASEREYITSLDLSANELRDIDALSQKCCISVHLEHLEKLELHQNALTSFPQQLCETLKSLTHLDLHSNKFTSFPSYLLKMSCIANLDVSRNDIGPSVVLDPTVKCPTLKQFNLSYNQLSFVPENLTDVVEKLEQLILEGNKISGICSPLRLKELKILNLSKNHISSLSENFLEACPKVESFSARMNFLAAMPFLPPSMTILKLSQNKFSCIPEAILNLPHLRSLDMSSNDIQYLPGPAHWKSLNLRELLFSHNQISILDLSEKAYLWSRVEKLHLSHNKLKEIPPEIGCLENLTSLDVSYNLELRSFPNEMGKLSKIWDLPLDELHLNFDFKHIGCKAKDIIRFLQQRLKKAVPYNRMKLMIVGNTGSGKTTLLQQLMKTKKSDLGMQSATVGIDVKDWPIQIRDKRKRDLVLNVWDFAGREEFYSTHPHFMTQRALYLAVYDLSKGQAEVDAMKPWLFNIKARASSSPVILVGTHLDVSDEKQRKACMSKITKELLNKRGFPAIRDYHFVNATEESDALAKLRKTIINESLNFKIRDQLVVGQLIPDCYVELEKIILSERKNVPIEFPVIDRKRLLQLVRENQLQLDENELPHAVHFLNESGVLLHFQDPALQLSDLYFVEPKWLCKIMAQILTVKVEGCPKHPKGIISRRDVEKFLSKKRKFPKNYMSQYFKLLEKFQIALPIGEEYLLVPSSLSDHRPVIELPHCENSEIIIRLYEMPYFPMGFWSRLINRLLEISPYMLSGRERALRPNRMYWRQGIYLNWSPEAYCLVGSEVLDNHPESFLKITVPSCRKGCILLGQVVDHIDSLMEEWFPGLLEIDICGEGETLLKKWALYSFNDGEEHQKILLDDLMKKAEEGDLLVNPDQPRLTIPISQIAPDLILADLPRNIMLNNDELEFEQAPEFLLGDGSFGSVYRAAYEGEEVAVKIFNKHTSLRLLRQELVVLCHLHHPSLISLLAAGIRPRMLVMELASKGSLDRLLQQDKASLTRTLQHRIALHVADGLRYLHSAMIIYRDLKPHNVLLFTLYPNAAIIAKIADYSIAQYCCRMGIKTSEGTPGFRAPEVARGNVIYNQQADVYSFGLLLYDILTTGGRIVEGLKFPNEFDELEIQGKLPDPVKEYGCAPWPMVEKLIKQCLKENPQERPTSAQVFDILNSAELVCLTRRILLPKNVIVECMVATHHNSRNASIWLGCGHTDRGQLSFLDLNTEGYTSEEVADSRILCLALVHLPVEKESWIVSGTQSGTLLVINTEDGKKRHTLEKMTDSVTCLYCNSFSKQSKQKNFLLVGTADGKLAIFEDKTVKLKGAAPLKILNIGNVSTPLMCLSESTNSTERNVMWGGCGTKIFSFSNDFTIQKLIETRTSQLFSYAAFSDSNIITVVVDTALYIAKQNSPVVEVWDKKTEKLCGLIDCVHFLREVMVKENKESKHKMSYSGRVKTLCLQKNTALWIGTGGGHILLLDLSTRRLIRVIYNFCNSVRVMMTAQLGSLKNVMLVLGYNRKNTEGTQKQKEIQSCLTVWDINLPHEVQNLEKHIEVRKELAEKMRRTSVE
Sequence of kinases (Homo sapiens, UniProt P15056, V600E) (P15056 2-766 V600E limits assumed): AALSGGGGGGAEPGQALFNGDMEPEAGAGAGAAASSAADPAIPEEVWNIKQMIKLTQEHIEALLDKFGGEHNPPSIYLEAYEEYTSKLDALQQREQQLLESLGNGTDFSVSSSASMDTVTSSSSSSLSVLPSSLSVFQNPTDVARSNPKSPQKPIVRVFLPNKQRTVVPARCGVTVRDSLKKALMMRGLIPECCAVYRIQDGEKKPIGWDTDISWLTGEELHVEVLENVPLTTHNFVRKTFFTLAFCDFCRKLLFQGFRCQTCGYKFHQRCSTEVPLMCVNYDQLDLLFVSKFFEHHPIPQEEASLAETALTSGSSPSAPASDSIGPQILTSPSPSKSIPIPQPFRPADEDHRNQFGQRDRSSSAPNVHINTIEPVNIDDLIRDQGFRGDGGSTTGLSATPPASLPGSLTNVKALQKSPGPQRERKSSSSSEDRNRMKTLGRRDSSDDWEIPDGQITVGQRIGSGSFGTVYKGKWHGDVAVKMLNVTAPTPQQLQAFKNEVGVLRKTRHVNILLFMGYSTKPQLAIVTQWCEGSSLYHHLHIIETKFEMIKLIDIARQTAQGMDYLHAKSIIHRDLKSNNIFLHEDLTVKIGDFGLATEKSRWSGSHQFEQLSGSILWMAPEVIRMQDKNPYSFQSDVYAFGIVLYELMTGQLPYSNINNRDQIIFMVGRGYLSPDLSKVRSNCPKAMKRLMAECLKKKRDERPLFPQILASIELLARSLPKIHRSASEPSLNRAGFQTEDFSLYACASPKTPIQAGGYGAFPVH

What is called IC50 is the concentration that gives 50% inhibition. Low readings indicate higher potency, high ones lower potency. In the case of `Cn1cc(-c2ccc3[nH]nc(-c4cc(N5CCOCC5)ncn4)c3c2)cn1` [Example A1], the half-maximal inhibitory concentration (IC50) was 41 nM in test [1] and 2.31 nM in test [2] (setting [5]).
For the compound `Cn1cc(-c2ccc3[nH]nc(-c4cc(N5CCN(S(C)(=O)=O)CC5)ncn4)c3c2)cn1` [Example A3], the half-inhibitory concentration (IC50) in test [1] was 36 nM; in test [2] (setting [5]), 3.28 nM.
For `CCN1CCN(c2cc(-c3n[nH]c4ccc(-c5cnn(C)c5)cc34)ncn2)CC1` [Example A8] the same measures were 14 nM and 0.76 nM.
For `CC(C)Oc1ccc2[nH]nc(-c3cc(N4CCO[C@H](C)C4)ncn3)c2c1` [Example D2], in the test on kinases [3], the “percent inhibition IRAK1” value is recorded as −7%, the “percent inhibition AURKB (Aurora B)” value amounted to 9%, the “percent inhibition CDK1/cyclin B” value came to 7% and the “percent inhibition CHEK2 (CHK2)” value is recorded as 1%. Further, in the test with kinases [3], the “percent inhibition CLK2” value is listed as 79%, the “percent inhibition DYRK1A” value came out at 13%, the “percent inhibition JAK3” value was found to be 8% and the “percent inhibition MAPK1 (ERK2)” value is given as 5%. In addition, the “percent inhibition MAPK8 (JNK1)” value in the test with kinases [3] amounted to 28%. Besides, the “percent inhibition BRAF V599E” value at kinases [4] is listed as −11%. In test [1], the half-maximal inhibitory concentration (IC50) turned out to be 67 nM. The compound further returned an IC50 in test [2] (setting [5]) of 5.09 nM.
In the case of `CC(C)Oc1ccc2[nH]nc(-c3cc(N4CCOCC4)ncn3)c2c1` [Example D6], in the test on kinases [3], the “percent inhibition IRAK1” value is −1%, the “percent inhibition AURKB (Aurora B)” value is recorded as 16%, the “percent inhibition CDK1/cyclin B” value came out at 7% and the “percent inhibition CHEK2 (CHK2)” value is on record as 7%. Also, in the test on kinases [3], the “percent inhibition CLK2” value is recorded as 66%, the “percent inhibition DYRK1A” value is given as 12%, the “percent inhibition JAK3” value was 5% and the “percent inhibition MAPK1 (ERK2)” value came to 7%. Also, in the test on kinases [3], the “percent inhibition MAPK8 (JNK1)” value is listed as 28%. For the same compound, at kinases [4], the “percent inhibition BRAF V599E” value is given as 2%. Moreover, in test [1], half-maximal inhibition (IC50) required 96 nM. The compound also registered an IC50 in test [2] (setting [5]) of 5.95 nM.
With `CC(C)Oc1ccc2[nH]nc(-c3cc(N4CCN(CCF)CC4)ncn3)c2c1` [Example D15], in the test on kinases [3], the “percent inhibition IRAK1” value is reported as −3%, the “percent inhibition AURKB (Aurora B)” value was found to be 18%, the “percent inhibition CDK1/cyclin B” value is recorded as 10% and the “percent inhibition CHEK2 (CHK2)” value worked out at 13%. For the same compound, in the test with kinases [3], the “percent inhibition CLK2” value was 70%, the “percent inhibition DYRK1A” value was found to be 30%, the “percent inhibition JAK3” value is 9% and the “percent inhibition MAPK1 (ERK2)” value turned out to be 16%. For the same compound, in the test with kinases [3], the “percent inhibition MAPK8 (JNK1)” value is 56%. In addition, the “percent inhibition BRAF V599E” value on kinases [4] stood at 28%. The compound also returned a 50% inhibitory concentration (IC50) in test [1] of 34 nM. Further, in test [2] (setting [5]), inhibition was half-maximal at 5.5 nM (IC50).
As to `CC(C)Oc1cc2c(-c3cc(N4CCN(S(C)(=O)=O)CC4)ncn3)n[nH]c2cc1F` [Example D24], the half-maximal inhibitory concentration (IC50) came to 28 nM in test [1] and 3.09 nM in test [2] (setting [5]).
With `CC(C)Oc1cc2c(-c3cc(N4CCN(C)CC4)ncn3)n[nH]c2cc1F` [Example D25], in the test with kinases [3], the “percent inhibition IRAK1” value is 15%, the “percent inhibition AURKB (Aurora B)” value was found to be 14%, the “percent inhibition CDK1/cyclin B” value was determined as 17% and the “percent inhibition CHEK2 (CHK2)” value is recorded as 8%. In the test on kinases [3], the “percent inhibition CLK2” value amounted to 89%, the “percent inhibition DYRK1A” value came out at 39%, the “percent inhibition JAK3” value is 8% and the “percent inhibition MAPK1 (ERK2)” value is recorded as 0%. In the test with kinases [3], the “percent inhibition MAPK8 (JNK1)” value is recorded as 56%. On kinases [4], the “percent inhibition BRAF V599E” value amounted to 7%. This compound also showed an IC50 in test [2] (setting [5]) of 4.35 nM.
Take `CC(C)Oc1ccc2[nH]nc(-c3cc(N4CCC5(CCNC5=O)CC4)ncn3)c2c1` [Example D32]: the results for the concentration for half-maximal inhibition (IC50) in test [1] and in test [2] (setting [5]) were 30 nM and 2.31 nM, respectively.
For `CC(C)Oc1cc2c(-c3cc(N4C[C@@H](C)O[C@@H](C)C4)ncn3)n[nH]c2cc1F` [Example D41] the same measures were 22 nM and 2.89 nM.
On to `COC[C@H](C)Oc1ccc2[nH]nc(-c3cc(N4CCOCC4)ncn3)c2c1` [Example H4], for which the IC50 worked out at 33 nM in test [1] and 2.6 nM in test [2] (setting [5]).
For `COCCN1CCN(c2cc(-c3n[nH]c4ccc(OC(C)C)cc34)ncn2)CC1` [Example K10] the same measures were 24 nM and 4.9 nM.
Turning to `c1nc(-c2n[nH]c3ccc(-c4ccsc4)cc23)cc(N2CCOCC2)n1` [Example U9], in test [2] (Table U), 36.4 nM corresponded to half-maximal inhibition (IC50).
For `Cc1ncc(-c2ccc3[nH]nc(-c4cc(N5CCOCC5)ncn4)c3c2)s1` [Example U10], in test [2] (Table U), the half-inhibitory concentration (IC50) was 2.2 nM.
Same read-out and setting: the result for `CC1(C)CC(=O)C=C(c2ccc3[nH]nc(-c4cc(N5CCOCC5)ncn4)c3c2)C1` [Example U11] reads 1.63 nM; that for `C1=C(c2ccc3[nH]nc(-c4cc(N5CCOCC5)ncn4)c3c2)CCNC1` [Example U12], 71.6 nM; that for `COc1ccncc1-c1ccc2[nH]nc(-c3cc(N4CCOCC4)ncn3)c2c1` [Example U13], 1.72 nM.
Same read-out and setting: the result for `c1cc(-c2ccc3[nH]nc(-c4cc(N5CCOCC5)ncn4)c3c2)[nH]n1` [Example U14] reads 2.63 nM; that for `Cc1ccc(-c2ccc3[nH]nc(-c4cc(N5CCOCC5)ncn4)c3c2)cc1` [Example U15], 251 nM.
Still for that read-out and setting: as for `c1nc(-c2n[nH]c3ccc(-c4cn[nH]c4)cc23)cc(N2CCOCC2)n1` [Example U16], the figure is 2.3 nM; as for `O=C1C=C(c2ccc3[nH]nc(-c4cc(N5CCOCC5)ncn4)c3c2)CCC1` [Example U17], 1.63 nM.
The compound `Clc1cc(-c2ccc3[nH]nc(-c4cc(N5CCOCC5)ncn4)c3c2)ccn1` [Example U18] registered a concentration for half-maximal inhibition (IC50) in test [2] (Table U) of 266 nM.
Same read-out and setting: the result for `Cc1n[nH]c(C)c1-c1ccc2[nH]nc(-c3cc(N4CCOCC4)ncn3)c2c1` [Example U19] reads 2.58 nM.
`CC(C)N1CCN(c2cc(-c3n[nH]c4ccc(-c5cccs5)cc34)ncn2)CC1` [Example U21] registered an IC50 in test [2] (Table U) of 61.5 nM.
Still for that read-out and setting: the result for `CC(C)N1CCN(c2cc(-c3n[nH]c4ccc(-c5ccoc5)cc34)ncn2)CC1` [Example U22] reads 9.03 nM; that for `COc1ccncc1-c1ccc2[nH]nc(-c3cc(N4CCN(C(C)C)CC4)ncn3)c2c1` [Example U23], 1.26 nM; that for `CC(C)N1CCN(c2cc(-c3n[nH]c4ccc(-c5cn[nH]c5)cc34)ncn2)CC1` [Example U24], 0.96 nM.
Same read-out and setting: as for `CC(C)N1CCN(c2cc(-c3n[nH]c4ccc(-c5ccn[nH]5)cc34)ncn2)CC1` [Example U25], the figure is 2.34 nM; as for `COc1ccncc1-c1ccc2[nH]nc(-c3cc(N4C[C@@H](C)O[C@@H](C)C4)ncn3)c2c1` [Example U26], 0.75 nM; as for `C[C@@H]1CN(c2cc(-c3n[nH]c4ccc(-c5cn[nH]c5)cc34)ncn2)C[C@H](C)O1` [Example U27], 1.35 nM.
Same read-out and setting: the result for `C[C@@H]1CN(c2cc(-c3n[nH]c4ccc(-c5ccn[nH]5)cc34)ncn2)C[C@H](C)O1` [Example U28] reads 1.44 nM; that for `Cc1n[nH]c(C)c1-c1ccc2[nH]nc(-c3cc(N4CCO[C@H](C)C4)ncn3)c2c1` [Example U29], 3.2 nM.
For `FC1(F)CCN(c2cc(-c3n[nH]c4ccc(-c5cccnc5)cc34)ncn2)CC1` [U], in test [2] (setting [5]), the IC50 was determined as 11.1 nM.
In test [2] (setting [5]), `CC(C)Cc1ccc2[nH]nc(-c3cc(N4CCOCC4)ncn3)c2c1` [V] gave an IC50 of 56 nM.
